This experiment concerns 521955-158-R2-J5-PDC complex spheroid growth. Put plainly: Anticancer human tumor 521955-158-R2-J5-PDC patient-derived pancreatic carcinoma cell line growth inhibition [AhR]. As to conditions: for viability, T/C: stronger effect = lower value. The method in brief:
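Spheroids combined tumor cells with HUVEC endothelial cells and human MSCs as stroma. AhR antagonists were paired with standard or investigational drugs, each dosed in half-log steps down from near clinical Cmax, or from 10 microM where Cmax was unknown.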

Where [1] appears, read: curve of first compound, second compound 0.1 µM.
[2] abbreviates: curve of first compound, second compound 0.316 µM.
The mark [3] stands for this setting: curve of first compound, second compound 1 µM.
The mark [4] stands for this setting: curve of first compound, second compound 3.16 µM.
Setting [5] is: curve of first compound, second compound 10 µM.
Where [6] appears, read: second compound 0.1 µM, first compound 0.0316 µM.
The mark [7] stands for this setting: second compound 0.1 µM, first compound 0.1 µM.
Setting [8] is: second compound 0.1 µM, first compound 0.316 µM.
Setting [9] is: second compound 0.1 µM, first compound 1 µM.
[10] abbreviates: second compound 0.316 µM, first compound 0.0316 µM.
The mark [11] stands for this setting: second compound 0.316 µM, first compound 0.1 µM.
[12] abbreviates: second compound 0.316 µM, first compound 0.316 µM.
Where [13] appears, read: second compound 0.316 µM, first compound 1 µM.
Where [14] appears, read: second compound 1 µM, first compound 0.0316 µM.
Where [15] appears, read: second compound 1 µM, first compound 0.1 µM.
The mark [16] stands for this setting: second compound 1 µM, first compound 0.316 µM.
[17] abbreviates: second compound 1 µM, first compound 1 µM.
Setting [18] is: second compound 3.16 µM, first compound 0.0316 µM.
[19] abbreviates: second compound 3.16 µM, first compound 0.1 µM.
The mark [20] stands for this setting: second compound 3.16 µM, first compound 0.316 µM.
Where [21] appears, read: second compound 3.16 µM, first compound 1 µM.
[22] abbreviates: second compound 10 µM, first compound 0.0316 µM.
[23] abbreviates: second compound 10 µM, first compound 0.1 µM.
Where [24] appears, read: second compound 10 µM, first compound 0.316 µM.
[25] abbreviates: second compound 10 µM, first compound 1 µM.
Where [26] appears, read: second compound 0.1 µM, first compound 3.16 µM.
[27] abbreviates: second compound 0.1 µM, first compound 10 µM.
Setting [28] is: second compound 0.316 µM, first compound 3.16 µM.
The mark [29] stands for this setting: second compound 0.316 µM, first compound 10 µM.
The mark [30] stands for this setting: second compound 1 µM, first compound 3.16 µM.
The mark [31] stands for this setting: second compound 1 µM, first compound 10 µM.
[32] abbreviates: second compound 3.16 µM, first compound 3.16 µM.
The mark [33] stands for this setting: second compound 3.16 µM, first compound 10 µM.
Where [34] appears, read: second compound 10 µM, first compound 3.16 µM.
[35] abbreviates: second compound 10 µM, first compound 10 µM.

Values joined by “and” are separate entries in the source; they are usually repeats but may differ in a detail not shown here. Equal values may be shown once.
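For viability, T/C in this document: spheroids mix tumor cells with HUVEC endothelium and human MSC stroma; luminescence taken as viability surrogate after a week of drug exposure.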

Take `Nc1ncn(C2CC(O)C(CO)O2)c(=O)n1` (stereo not given) + CC(CO)NC(=O)c1cc(-c2ccc(Cl)cc2)nn(-c2cnn(C)c2)c1=O: the IC50 is 621 nM under setting [1]; 652 nM under setting [2]; over 1000 nM under setting [3]; 803 nM under setting [4]; over 1000 nM under setting [5]. For the same compound, the viability, T/C was 113% (second compound 0.1 µM, first compound 0.00316 µM); 105% (second compound 0.1 µM, first compound 0.01 µM); 106% under setting [6]; 70.9% under setting [7]; 67.9% under setting [8]; 40.1% under setting [9]. Moreover, the viability, T/C is 97.2% (second compound 0.316 µM, first compound 0.00316 µM); 107% (second compound 0.316 µM, first compound 0.01 µM); 107% under setting [10]; 70.8% under setting [11]; 68.1% under setting [12]; 41.2% under setting [13]. Further, the viability, T/C reads like this: (second compound 1 µM, first compound 0.00316 µM) 111%; (second compound 1 µM, first compound 0.01 µM) 85.7%; under setting [14], 120%; under setting [15], 78.6%; under setting [16], 67.8%; under setting [17], 50.8%. The viability, T/C by setting is: (second compound 3.16 µM, first compound 0.00316 µM) 98.2%; (second compound 3.16 µM, first compound 0.01 µM) 95.2%; under setting [18], 87.3%; under setting [19], 87.1%; under setting [20], 64.7%; under setting [21], 46.4%. Besides, the viability, T/C by setting is: (second compound 10 µM, first compound 0.00316 µM) 83.3%; (second compound 10 µM, first compound 0.01 µM) 87%; under setting [22], 74.1%; under setting [23], 80.2%; under setting [24], 62.4%; under setting [25], 51%.
As for `NS(=O)(=O)OCC1CC(n2ccc3c(NC4CCc5ccccc54)ncnc32)CC1O` (stereo not given) + CC(CO)NC(=O)c1cc(-c2ccc(Cl)cc2)nn(-c2cnn(C)c2)c1=O, the IC50 was 486 nM under setting [1]; 484 nM under setting [2]; 492 nM under setting [3]; 371 nM under setting [4]; 232 nM under setting [5]. Besides, the viability, T/C under setting [6] is 87.2%; the viability, T/C under setting [7] is 92.5%; the viability, T/C under setting [8] is 61.7%; the viability, T/C under setting [9] was 29.5%; the viability, T/C under setting [26] is 20.6%; the viability, T/C under setting [27] was 18.7%. In addition, the viability, T/C reads like this: under setting [10], 93.1%; under setting [11], 90.2%; under setting [12], 61.1%; under setting [13], 30.5%; under setting [28], 19.5%; under setting [29], 18.3%. For the same compound, the viability, T/C is, setting by setting: under setting [14], 90.5%; under setting [15], 97.7%; under setting [16], 62%; under setting [17], 31%; under setting [30], 21.6%; under setting [31], 20.7%. The viability, T/C was 85.5% under setting [18]; 83.1% under setting [19]; 49.8% under setting [20]; 31.3% under setting [21]; 20.8% under setting [32]; 14.7% under setting [33]. Further, the viability, T/C under setting [22] was 68.8%; the viability, T/C under setting [23] is 66%; the viability, T/C under setting [24] is 41.6%; the viability, T/C under setting [25] was 31.2%; the viability, T/C under setting [34] is 19.2%; the viability, T/C under setting [35] is 15.2%.
In the case of `O=C(C=Cn1cnc(-c2cc(C(F)(F)F)cc(C(F)(F)F)c2)n1)NNc1cnccn1`, the viability, T/C is 73.8% and 59.8% (2×) (compound 0.00949 µM); 59.6% and 58.9% and 58.5% (compound 0.03 µM); 50.6% and 38.9% and 40.5% (compound 0.0949 µM); 55.6% and 49.5% and 37.7% (compound 0.3 µM); 45.3% and 45.9% and 37.6% (compound 0.949 µM); 29.1% and 24.8% and 27.1% (compound 3 µM). Moreover, the IC50 (curve of compound) is 256 nM and 163 nM and 48.8 nM.
Turning to `Nc1ccn(C2OC(CO)C(O)C2(F)F)c(=O)n1` (stereo not given) + CC(CO)NC(=O)c1cc(-c2ccc(Cl)cc2)nn(-c2cnn(C)c2)c1=O, the IC50 by setting is: under setting [1], 518 nM; under setting [2], 549 nM; under setting [3], 504 nM; under setting [4], 178 nM; under setting [5], 101 nM. For the same compound, the viability, T/C runs as follows: under setting [6], 59.8%; under setting [7], 75.3%; under setting [8], 72.4%; under setting [9], 24.4%; under setting [26], 13.2%; under setting [27], 13.6%. Besides, the viability, T/C under setting [10] was 56%; the viability, T/C under setting [11] was 73.8%; the viability, T/C under setting [12] is 86.4%; the viability, T/C under setting [13] is 26.1%; the viability, T/C under setting [28] was 11.4%; the viability, T/C under setting [29] is 9.09%. Moreover, the viability, T/C under setting [14] is 90.5%; the viability, T/C under setting [15] was 87.8%; the viability, T/C under setting [16] is 68.7%; the viability, T/C under setting [17] is 22.6%; the viability, T/C under setting [30] was 14.2%; the viability, T/C under setting [31] was 14.8%. The viability, T/C by setting is: under setting [18], 78.1%; under setting [19], 56.4%; under setting [20], 45.5%; under setting [21], 20.9%; under setting [32], 16.4%; under setting [33], 11.9%. The viability, T/C reads like this: under setting [22], 50.2%; under setting [23], 54.5%; under setting [24], 36.3%; under setting [25], 22.5%; under setting [34], 15.5%; under setting [35], 10.5%.
Turning to `COc1cc(Nc2ncc3c(n2)-c2ccc(Cl)cc2C(c2c(F)cccc2OC)=NC3)ccc1C(=O)O` + Cc1ccccc1N=Nc1ccc(NC(=O)c2ccnn2C)c(C)c1, the IC50 is over 10000 nM under setting [1]; over 10000 nM under setting [2]; over 10000 nM under setting [3]; over 10000 nM under setting [4]; over 10000 nM under setting [5]. Besides, the viability, T/C by setting is: under setting [6], 81.3%; under setting [7], 76%; under setting [8], 69.8%; under setting [9], 68.1%; under setting [26], 63.8%; under setting [27], 48.5%. The viability, T/C under setting [10] is 89.5%; the viability, T/C under setting [11] is 79.9%; the viability, T/C under setting [12] was 72.4%; the viability, T/C under setting [13] is 60.2%; the viability, T/C under setting [28] is 71.4%; the viability, T/C under setting [29] is 55.4%. For the same compound, the viability, T/C runs as follows: under setting [14], 109%; under setting [15], 69.8%; under setting [16], 74.3%; under setting [17], 58.9%; under setting [30], 62.1%; under setting [31], 53.9%. For the same compound, the viability, T/C runs as follows: under setting [18], 98.6%; under setting [19], 77%; under setting [20], 68.3%; under setting [21], 74.2%; under setting [32], 74.7%; under setting [33], 71.4%. In addition, the viability, T/C reads like this: under setting [22], 122%; under setting [23], 96.1%; under setting [24], 94.6%; under setting [25], 88.5%; under setting [34], 83.4%; under setting [35], 90.7%.
Regarding `CC(C)CC(NC(=O)C(Cc1ccccc1)NC(=O)c1cnccn1)B(O)O` (stereo not given), the viability, T/C by setting is: (compound 0.000949 µM) 93.7% and 85.5% and 84.3%; (compound 0.003 µM) 94.1% and 71.8% and 78.5%; (compound 0.03 µM) 1.41% and 1.04% and 0.32%; (compound 0.0949 µM) 0.32% and 0.33% and 0.22%; (compound 0.3 µM) 0.33% and 0.39% (2×). Besides, the IC50 (curve of compound) was 16.5 nM and 13.1 nM and 4.71 nM.
Turning to `Nc1ccccc1NC(=O)c1ccc(CNC(=O)OCc2cccnc2)cc1`, the viability, T/C reads like this: (compound 0.0316 µM) 97.7% and 110% and 106%; (compound 0.1 µM) 123% and 118% and 108%; (compound 0.316 µM) 106% and 127% and 115%; (compound 1 µM) 98.9% and 105% and 80%; (compound 3.16 µM) 63.6% and 66.5% and 53.9%; (compound 10 µM) 31.6% and 32.4% and 21.6%. Moreover, under “curve of compound”, the IC50 was 5150 nM and 5470 nM and 3260 nM.

As usually defined, the IC50 is the point on the concentration scale where inhibition reaches its midpoint. What is called viability, T/C is the result in the treated group divided by that in the control group, in per cent.

For the origin of these results see PubChem BioAssay AID1918998 (Molecular Pharmacology Branch, DTP, NCI, 2023).
